According to US20250092345A1, “INTER ORGAN PLATFORM FOR MICROPHYSIOLOGICAL SYSTEM ON A CHIP” (THE TRUSTEES OF COLUMBIA UNIVERSITY IN THE CITY OF NEW YORK, priority 2020, published 2025):

How the values were obtained:
[1] = cited from earlier work
[2] = test system: non-metastatic TE-ES (RD-ES); assay: Non-metastatic engineered ES bone tumor (TE-ES) in isolated culture, linsitinib; format: cell-based, human
From the text: The effects of linsitinib were studied in an experiment performed according to the 3-week treatment cycle used in the clinical trial (3 days of drug administration followed by 4 days without the drug, in 3 cycles), with luminescence signal serving as an indicator of cancer cell viability within the TE-ES.
Determining the effects of linsitinib on ES cells and osteoblasts within the engineered ES bone tumors across a 3-week clinical drug treatment regimen is shown in FIGS. 33A-33B. […] Supernatants were collected from each individual sample across the duration of the drug treatments and were analyzed for osteoblast function (OCN, OPN) and for cytotoxicity (LDH) (mean±s.e.m., n=3).
Two weeks following the initiation of osteogenic differentiation, aggregates of ES tumor cells were prepared as described previously, using 0.3×10^6 cells per aggregate. After 1 week of culture, corresponding to the end of bone tissue culture (3 weeks), the primary ES cell aggregates were placed into the engineered bone constructs (3 aggregates per construct, placed apart of each other). Tumor models were established for two different types of primary ES cells: non-metastatic (RD-ES) and metastatic (SK-N-MC). Tissue engineered RD-ES and SK-N-MC tumors were cultured in the RPMI and EMEM media, respectively, supplemented with 10% FBS and 1% penicillin/streptomycin. Bone constructs cultured without tumor cell aggregates (TE-bone) in RPMI and EMEM media were used as controls.
Specifically, linsitinib was dissolved at a 10 mM concentration in DMSO (Corning) and mixed in with the respective cell medium at a […] concentration unless otherwise noted. Vehicle treatments involved just the addition of DMSO at identical volumes as a control. Tissues were randomly assigned to experimental groups. Medium was changed every day.
To assess apoptosis, paraffin embedded tissue sections were first deparaffinized with CitriSolv, rehydrated with graded series of ethanol washes, and then stained with a Click-iT® TUNEL Alexa Fluor® imaging assay (Thermo Fisher Scientific). Following nuclear counterstaining with DAPI (Life Technologies), the TUNEL labelled slides were imaged with an IX81 inverted fluorescent microscope (Olympus) and a Pike F032B camera (ALLIED Vision), using NIS-Elements AR software, and processed using ImageJ (NIH). Four representative images per condition were then analyzed using the previously developed automatic TUNEL cell counter plugin for ImageJ to quantify DAPI^+ cells and TUNEL^+ cells.
(§1) Cell viability was analyzed using a previously established protocol. Cancer cell viability was measured for GFP-Luciferase labelled cancer cells using ONE-Glo luciferase substrate that was prepared according to manufacturer's protocol (Promega). Samples were collected following 3, 7, and 21 days cycles of linsitinib treatment. Where noted, longitudinal cell viability was also assessed using luminescence, though at the cost of signal strength. Briefly, in vivo grade VivoGlo™ Luciferin (Promega) was made at a 200× stock concentration (30 mg/ml) in water, added to sample culture media at a 1:200 dilution, and scanned using a spectrophotometer (Biotek). Some of the IC50 values were determined using cell viability data generated using an MTT assay (RealTime-Glo™ MT Cell Viability Assay, Promega) that were analyzed according to manufacturer's protocol.
Osteocalcin (OCN), osteopontin (OPN), and lactic acid dehydrogenase (LDH) secreted levels were all measured using a similar approach.

[3] = test system: non-metastatic and metastatic GFP-luciferase ES cell lines (RD-ES, SK-N-MC); assay: Luminescence viability of GFP-luciferase ES cell monolayers; format: cell-based, human; conditions: 12 μM over 72 hours; both the non-metastatic and metastatic cell lines
Protocol: (§2) MTT viability assay was used to determine drug toxicity, with luminescence generated by viable cells measured at the endpoint (10^4 cells per well, mean±s.e.m., n=3). […] In order to determine cancer cell viability, cells were lysed and treated with luciferin using a Bright-Glo™ assay, with subsequent luminescence measured (10^4 cells per well, mean±s.e.m., n=3).
as §1

[4] = test system: non-metastatic and metastatic ES cell lines (RD-ES, SK-N-MC); assay: MTT viability assay in ES cell monolayers; format: cell-based, human; conditions: 0-100 μM over 72 hours
Protocol: as §2, §1

## C[C@]1(O)C[C@@H](c2nc(-c3ccc4ccc(-c5ccccc5)nc4c3)c3c(N)nccn32)C1 [linsitinib]
[1]
  half-life: approximately 5 hours
[2]; 0, 1.2, 12 and 120 μM, 72 hours
  response of cell viability (luminescence) to concentration: dose-dependent response
[2]; 12 μM
  apoptosis (TUNEL assay): increases in apoptosis
  cell viability (luminescence): significant reduction
[2]; 12 μM regimen, 1:1 mixed media
  OCN secretion: increased only slightly
  cancer cell population level maintained (luminescence): ~30 % of their starting population
[2]; 12 μM, 3-week regimen
  cytotoxicity (LDH secretion): spiked in both models immediately following drug administration, but significantly more so in the responsive, non-metastatic ES model
  osteocalcin secretion: decreased
[2]; 12 μM, 21-day treatment regimen
  cancer cell population (luminescence) across the clinical regimen: initial decrease in cancer cell population in the non-metastatic model and this population appeared unable to continue expanding
[2]; 12 μM, after 3 days
  drug response (luminescence): significant drug response
[2]; 12 μM, throughout the 21 days
  osteopontin secretion: significantly increased
[2]; second 21-day 12 μM regimen on tumors from sorted resistant cells
  drug response of ES resistant-cell derived tumors (luminescence): significant initial drug response
[3]
  drug efficacy (luminescence viability): significant drug efficacy
[4]
  IC50 (MTT viability assay): two orders of magnitude lower than the effective plasma concentration observed in patients
